The nature of experiment [1]: Fluorescent solution phase glucose responsive assay (pH 7.4, 298 K). A digest of the protocol:
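Glucose binding molecule and fluorescent inhibitor molecule mixed in defined media at pH 7.4 and 298 K unless stated; baseline emission recorded, then D-glucose added stepwise to set final concentrations, e.g. 10 mM. After equilibration, percent change in emission at Emmax versus baseline recorded.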

Experiment [2] is described as follows: Fluorescence lifetime glucose responsive assay (10 mM PBS, pH 7.4, 298 K). The conditions noted are these: Ex 450 nm.
The nature of experiment [3]: Fluorescent hydrogel phase glucose responsive assay (10 mM PBS, pH 7.4, 310 K). The conditions noted are these: 20 mM D-glucose, Ex 480/Emmax 520 nm.
The mark [4] stands for this setting: 5 mM glucose, GBM15 20 uM, FIM 5 uM.
Setting [5] is: 20 mM glucose, GBM15 20 uM, FIM 5 uM.
The mark [6] stands for this setting: 40 mM glucose, GBM15 20 uM, FIM 5 uM.
Setting [7] is: GBM30 100 uM, FIM 10 uM, hydrogel H (amino azide dextran/PEG).
The mark [8] stands for this setting: 5 mM D-glucose, GBM15 50 uM, FIM 5 uM, Ex 470/Emmax 520 nm, medium B (10 mM PBS).
Where [9] appears, read: 10 mM D-glucose, GBM15 50 uM, FIM 5 uM, Ex 470/Emmax 520 nm, medium B (10 mM PBS).
The mark [10] stands for this setting: 20 mM D-glucose, GBM15 50 uM, FIM 5 uM, Ex 470/Emmax 520 nm, medium B (10 mM PBS).

Take `CN1c2cc3c(cc2C(CS(=O)(=O)[O-])=CC1(C)C)C(c1ccc(C(=O)NCc2cn(CCOCCOCCOCCNC(=O)[C@H](Cc4cn(CCOCCOCCOCCOc5ccc(CCO[C@@H]6O[C@H](CO)[C@@H](O)[C@H](O)[C@H]6O)cc5)nn4)NC(=O)OC(C)(C)C)nn2)cc1C(=O)[O-])=c1cc2c(cc1O3)=[N+](C)C(C)(C)C=C2CS(=O)(=O)[O-].[Na+].[Na+]` [FIM10]: the “Change in Emmax for FIM at a particular D-glucose concentration” value (from here on “Change in Emmax for FIM”) in experiment [1] (5 mM D-glucose, GBM42 20 uM, FIM 5 uM, Ex 560/Emmax 610 nm, medium B (10 mM PBS)) is 65%; in experiment [1] (10 mM D-glucose, GBM42 20 uM, FIM 5 uM, Ex 560/Emmax 610 nm, medium B (10 mM PBS)), 85%; in experiment [1] (20 mM D-glucose, GBM42 20 uM, FIM 5 uM, Ex 560/Emmax 610 nm, medium B (10 mM PBS)), 105%; in experiment [1] (40 mM D-glucose, GBM40 5 uM, FIM 10 uM, Ex 560/Emmax 610 nm, medium B (10 mM PBS)) it was −75%; in experiment [1] (40 mM D-glucose, GBM42 20 uM, FIM 5 uM, Ex 560/Emmax 610 nm, medium B (10 mM PBS)), 110%. Moreover, in experiment [2] (20 mM glucose, GBM40 5 uM, FIM 10 uM), the “Fluorescence lifetime component τ1 for FIM and GBM at a particular glucose concentration” value (“Fluorescence lifetime component τ1” for short) was determined as 580 ns. Also, in experiment [2] (FIM 10 uM), the “Lifetime component τ1 of FIM only” value is on record as 575 ns. Besides, the “Lifetime component τ1 of FIM after GBM addition” value in experiment [2] (GBM40 5 uM, FIM 10 uM) was 620 ns.
As for `CC(C)(C)OC(=O)NC(Cc1cn(CCCCC(C(=O)NCC(COC2OC(CO)C(O)C(O)C2O)c2ccccc2)[N+](C)(C)C)nn1)C(=O)NCCOCCOCCn1cc(-c2ccnc(-c3cc(-c4cn(CCOCCOc5cc(S(=O)(=O)[O-])c6ccc7c(S(=O)(=O)[O-])cc(S(=O)(=O)[O-])c8ccc5c6c87)nn4)ccn3)c2)nn1.[Ru+2].c1ccc(-c2ccccn2)nc1.c1ccc(-c2ccccn2)nc1` (stereo not shown) [FIM56], in experiment [2] (setting [4]), the “Fluorescence lifetime component τ1” value came out at 695 ns; the “Fluorescence lifetime component τ2 for FIM and GBM at a particular glucose concentration” value (“Fluorescence lifetime component τ2” below) is 3040 ns. For the same compound, in experiment [2] (setting [5]), the “Fluorescence lifetime component τ1” value turned out to be 660 ns; the “Fluorescence lifetime component τ2” value is 3210 ns. Also, in experiment [2] (setting [6]), the “Fluorescence lifetime component τ1” value turned out to be 625 ns; the “Fluorescence lifetime component τ2” value is 3260 ns. Besides, in experiment [2] (FIM 5 uM), the “Lifetime component τ1 of FIM only” value is on record as 520 ns and the “Lifetime component τ2 of FIM only” value worked out at 3620 ns. For the same compound, in experiment [2] (GBM15 20 uM, FIM 5 uM), the “Lifetime component τ1 of FIM after GBM addition” value was determined as 650 ns and the “Lifetime component τ2 of FIM after GBM addition” value is given as 2500 ns.
On to `C[N+](C)(C)[C@@H](CCCCn1cc(C[C@H](NC(=O)OC[C@@H]2[C@@H]3CCC#CCC[C@@H]32)C(=O)NCCOCCOCCn2cc(CNC(=O)c3ccc4c(c3)C(=O)OC43c4ccc(N)c(S(=O)(=O)[O-])c4Oc4c3ccc(N)c4S(=O)(=O)O)nn2)nn1)C(=O)NCC(CO[C@@H]1O[C@H](CO)[C@@H](O)[C@H](O)[C@H]1O)c1ccccc1` (stereo partly shown) [FIM60], for which the “Change in Emmax for FIM” value in experiment [3] (GBM15 50 uM, FIM 50 uM, hydrogel G (amino dextran/PEG/PEG3-azide)) is on record as 50%; in experiment [3] (setting [7]), 40%; in experiment [1] (5 mM D-glucose, GBM7 50 uM, FIM 5 uM, Ex 470/Emmax 520 nm, medium B (10 mM PBS)) it was 220%; in experiment [1] (setting [8]), 80%; in experiment [1] (5 mM D-glucose, GBM30 50 uM, FIM 1 uM, Ex 470/Emmax 520 nm, medium B (10 mM PBS)) it was 120%; in experiment [1] (5 mM D-glucose, GBM40 20 uM, FIM 5 uM, Ex 470/Emmax 520 nm, medium B (10 mM PBS)) it was 250%. Further, the “Change in Emmax for FIM” value in experiment [1] (5 mM D-glucose, GBM40 20 uM, FIM 5 uM, Ex 470/Emmax 520 nm, medium C (human serum)) is 250%; in experiment [1] (5 mM D-glucose, GBM43 40 uM, FIM 5 uM, Ex 450/Emmax 520 nm, medium B (10 mM PBS)) it was 80%; in experiment [1] (setting [9]), 130%; in experiment [1] (10 mM D-glucose, GBM30 50 uM, FIM 1 uM, Ex 470/Emmax 520 nm, medium B (10 mM PBS)) it was 170%; in experiment [1] (10 mM D-glucose, GBM43 40 uM, FIM 5 uM, Ex 450/Emmax 520 nm, medium B (10 mM PBS)), 125%; in experiment [1] (20 mM D-glucose, GBM7 50 uM, FIM 5 uM, Ex 470/Emmax 520 nm, medium B (10 mM PBS)), 310%. The “Change in Emmax for FIM” value in experiment [1] (setting [10]) is 200%; in experiment [1] (20 mM D-glucose, GBM30 50 uM, FIM 1 uM, Ex 470/Emmax 520 nm, medium B (10 mM PBS)), 200%; in experiment [1] (20 mM D-glucose, GBM40 20 uM, FIM 5 uM, Ex 470/Emmax 520 nm, medium B (10 mM PBS)) it was 450%; in experiment [1] (20 mM D-glucose, GBM40 20 uM, FIM 5 uM, Ex 470/Emmax 520 nm, medium C (human serum)) it was 430%; in experiment [1] (20 mM D-glucose, GBM43 40 uM, FIM 5 uM, Ex 450/Emmax 520 nm, medium B (10 mM PBS)) it was 165%; in experiment [1] (40 mM D-glucose, GBM7 50 uM, FIM 5 uM, Ex 470/Emmax 520 nm, medium B (10 mM PBS)) it was 400%. In addition, the “Change in Emmax for FIM” value in experiment [1] (40 mM D-glucose, GBM15 50 uM, FIM 5 uM, Ex 470/Emmax 520 nm, medium B (10 mM PBS)) turned out to be 220%; in experiment [1] (40 mM D-glucose, GBM30 50 uM, FIM 1 uM, Ex 470/Emmax 520 nm, medium B (10 mM PBS)) it was 220%; in experiment [1] (40 mM D-glucose, GBM43 40 uM, FIM 5 uM, Ex 450/Emmax 520 nm, medium B (10 mM PBS)), 200%; in experiment [1] (80 mM D-glucose, GBM40 20 uM, FIM 5 uM, Ex 470/Emmax 520 nm, medium B (10 mM PBS)), 600%; in experiment [1] (80 mM D-glucose, GBM40 20 uM, FIM 5 uM, Ex 470/Emmax 520 nm, medium C (human serum)), 500%; in experiment [1] (80 mM D-glucose, GBM43 40 uM, FIM 5 uM, Ex 450/Emmax 520 nm, medium B (10 mM PBS)) it was 230%.
As for `C#CCCC(=O)N[C@@H](CCCCNC(=O)Cn1cc(CNC(=O)c2ccc3c(c2)C(=O)OC32c3ccc(O)cc3Oc3cc(O)ccc32)nn1)C(=O)NCCOCCOCCOCCOCc1cn(CCO[C@@H]2O[C@H](CO)[C@@H](O)[C@H](O)[C@H]2O)nn1` [FIM66], the “Change in Emmax for FIM” value in experiment [3] (setting [7]) was 140%; in experiment [1] (setting [8]) it was 250%; in experiment [1] (setting [9]), 255%; in experiment [1] (setting [10]), 260%.
